Converted amounts (≈) assume the structure as drawn. Where two headings read alike, the source gives them in different places.

The term MIC denotes the lowest concentration that inhibits growth of the organism.

Holding throughout (assay type): cell-based
Test [1] deals with Acinetobacter anitratus 5I-156. Briefly: In vitro activity (MIC), agar dilution test. Conditions: Acinetobacter calcoaceticus, 5I156. The source says:
(§1) In the following Table there are presented for the composition in accordance with the invention the minimum inhibitory concentrations (MIC values in μ/ml) determined in in vitro comparative tests in the case of various infections with pathogenic microorganisms.
(§2) In vitro activity of compound A and mecillinam (MEC) against various
(§3) of bacteria (MIC μg/ml) Method: Agar dilution test with DST agar

Test [2] has as its system Citrobacter freundii 1385 b. The experiment in a line: In vitro activity (MIC), agar dilution test.
Source text: as §1, §2, §3
A general note: In agar dilution the substance is mixed into plates at graded concentrations.

Test [3] deals with Citrobacter freundii 1982. The experiment in a line: In vitro activity (MIC), agar dilution test.
Source text: as §1, §2, §3

The subject of test [4] is Enterobacter agglomerans 960. Briefly: In vitro activity (MIC), agar dilution test. To be noted: Pantoea agglomerans.
Source text: as §1, §2, §3

In test [5] the test system is Enterobacter cloacae 163. The experiment in a line: In vitro activity (MIC), agar dilution test.
Source text: as §1, §2, §3

The subject of test [6] is Enterobacter cloacae 5. The experiment in a line: In vitro activity (MIC), agar dilution test.
Source text: as §1, §2, §3

The test system of test [7] is Enterobacter cloacae 908. Briefly: In vitro activity (MIC), agar dilution test.
Source text: as §1, §2, §3

The test system of test [8] is Enterobacter cloacae MK 1617. The experiment in a line: In vitro activity (MIC), agar dilution test.
Source text: as §1, §2, §3

Test [9] concerns Enterobacter cloacae MK 373. The experiment in a line: In vitro activity (MIC), agar dilution test. Conditions: MK373.
Source text: as §1, §2, §3

For test [10], the system named is Enterobacter cloacae P99. The experiment in a line: In vitro activity (MIC), agar dilution test.
Source text: as §1, §2, §3

The test system of test [11] is Escherichia coli 5/9. Briefly: In vitro activity (MIC), agar dilution test.
Source text: as §1, §2, §3

In test [12] the test system is Pseudomonas aeruginosa 143724 R. Briefly: In vitro activity (MIC), agar dilution test.
Source text: as §1, §2, §3

Test [13] has as its system Pseudomonas aeruginosa 1920 E. Briefly: In vitro activity (MIC), agar dilution test.
Source text: as §1, §2, §3

For test [14], the system named is Pseudomonas aeruginosa 1937 E. The experiment in a line: In vitro activity (MIC), agar dilution test.
Source text: as §1, §2, §3

For test [15], the system named is Pseudomonas aeruginosa 5646. Briefly: In vitro activity (MIC), agar dilution test.
Source text: as §1, §2, §3

For test [16], the system named is Pseudomonas aeruginosa 5748. Briefly: In vitro activity (MIC), agar dilution test.
Source text: as §1, §2, §3

Test [17] has as its system Enterobacter strains. Briefly: Activity and synergism against Enterobacter strains.
Source text: In the scope of the present invention it has been ascertained that compound A, which has hitherto not been considered as a combination partner for mecillinam, is especially well suited for such a combination.
as §1

[18] abbreviates: single substance, DST agar (Oxoid), read-out: MIC.

In the case of `NC(=O)OC[C@@H]1[C@H](NC(=O)/C(=N\OCC(=O)O)c2csc(N)n2)C(=O)N1S(=O)(=O)O` [Compound A, (2S,3S)-3-((Z)-2-(2-amino-4-thiazolyl)-2-[(carboxymethoxy)imino]acetamido)-2-[(carbamoyloxy)-methyl]-4-oxo-1-azetidinesulphonic acid], the MIC was 16 µg/mL (≈ 34.3 µM) in test [1] (setting [18]); 8 µg/mL (≈ 17.2 µM) in test [2] (setting [18]); 4 µg/mL (≈ 8.58 µM) in [3] (setting [18]); 16 µg/mL (≈ 34.3 µM) in [4] (setting [18]); 32 µg/mL (≈ 68.6 µM) in [5] (setting [18]); 8 µg/mL (≈ 17.2 µM) in test [6] (setting [18]). Further, the MIC in [7] (setting [18]) came to 32 µg/mL (≈ 68.6 µM); in test [8] (MK1617, single substance, DST agar (Oxoid), read-out: MIC) it was 32 µg/mL (≈ 68.6 µM); in [9], 4 µg/mL (≈ 8.58 µM); in test [10], 16 µg/mL (≈ 34.3 µM); in test [11] (setting [18]), 2 µg/mL (≈ 4.29 µM); in test [12] (setting [18]) it was 8 µg/mL (≈ 17.2 µM). For the same compound, the MIC in [13] (setting [18]) came to 4 µg/mL (≈ 8.58 µM); in test [14] (setting [18]), 2 µg/mL (≈ 4.29 µM); in test [15] (setting [18]) it was 8 µg/mL (≈ 17.2 µM); in test [16], 8 µg/mL (≈ 17.2 µM). Further, the “sensitivity of the strains” value in test [17] was “only moderately sensitive”.
Consider `CC1(C)S[C@@H]2[C@H](/N=C/N3CCCCCC3)C(=O)N2[C@H]1C(=O)O` [MEC, mecillinam], for which the MIC in test [1], in test [2], in [3], in test [4], in test [5] and in [6] was more than 256 µg/mL each time. Besides, the MIC in test [7], in test [8] (MK1617), in test [9], in test [10], in test [11] and in test [12] was more than 256 µg/mL each time. For the same compound, the MIC in test [13], in [14], in test [15] and in test [16] was more than 256 µg/mL throughout. For the same compound, the “sensitivity of the strains” value in test [17] is listed as “resistant”.

These data come from patent US4689227A, “Antibacterial composition” (Hoffmann-La Roche Inc., priority 1984, dated 1987).
